These are literature values, as cited in patent US20040039017A1, “Urotensin-II receptor antagonists” (priority 2000, published 2004).

The subject of the data set is rat-isolated aorta. The note with it: Ames et al. Nature 1999, 401, 282.

In the case of `CC(C)[C@H](NC(=O)[C@@H]1CSSC[C@H](NC(=O)[C@H](CC(=O)O)NC(=O)[C@@H]2CCCN2C(=O)[C@@H](NC(=O)[C@@H](N)CCC(=O)O)[C@@H](C)O)C(=O)N[C@@H](Cc2ccccc2)C(=O)N[C@@H](Cc2c[nH]c3ccccc23)C(=O)N[C@@H](CCCCN)C(=O)N[C@@H](Cc2ccc(O)cc2)C(=O)N1)C(=O)O` [Human Urotensin-II], the contractile activity result is listed as “most potent contractile agonist identified to date”.
